Consider four compounds from US8026378B2, “Glyceryl ether compounds and their use” (Segetis, Inc., priority 2005, dated 2011).

The data set can be described thus: Emulsifying properties: hexane/water emulsions. Format: physicochemical. Conditions: for emulsifying properties on addition of salt: addition of 0.2% calcium chloride or magnesium chloride, mixture of isomers; for stability of emulsions of water in hexane: aqueous solutions of the mixture of isomers. From the text:
[…] The emulsifying properties of compounds (12a) and (12b) were not disrupted by the addition of 0.2% calcium chloride or magnesium chloride.

With `CCCCCCCCC(O)COCC(O)CO` (stereo not drawn) [Compound 12a], the “emulsifying properties on addition of salt” value (“emulsifying properties” below) is on record as “not disrupted”.

As to `CCCCCCCCC(CO)OCC(O)CO` (stereo not drawn) [Compound 12b], the “emulsifying properties” value is listed as “not disrupted”. On to `CCCCCCCCCCCCCCCCC(O)COCC(O)CO` (stereo not drawn) [Compound 13a], for which the “emulsifying properties” value is on record as “not substantially disrupted” and the “stability of emulsions of water in hexane” value is recorded as “able to support stability of emulsions of water in hexane”. For the compound `CCCCCCCCCCCCCCCCC(CO)OCC(O)CO` (stereo not drawn) [Compound 13b], the “emulsifying properties” value is recorded as “not substantially disrupted” and the “stability of emulsions of water in hexane” value was “able to support stability of emulsions of water in hexane”.
